Laboratory results from publication PMC7024169, “Synthesis and Antimalarial Activity of 1,4-Disubstituted Piperidine Derivatives” (Molecules, 2020).

Legend:
[1] = test system: Plasmodium falciparum W2 Strain; assay: microbe, parasite or virus in culture; format: cell-based
[2] = test system: Plasmodium falciparum 3D7 Strain; assay: Antiplasmodial SYBR Green I assay, chloroquine-sensitive 3D7 strain; format: cell-based
HUVEC cells = details: human

| SMILES | IC50 ([1]; Plasmodium falciparum, W2, 48 h, read-out: IC50 ± SD, Plasmodium falciparum W2 Strain) | IC50 ([2]; Plasmodium falciparum, chloroquine-sensitive 3D7, 48 h incubation, SYBR Green I, read-out: IC50 ± SD, Plasmodium falciparum 3D7 Strain) | Selectivity Index (W2) =CC50/IC50 ([1]; CC50 HUVEC / IC50 W2) | CC50 ± SD, HUVEC Cells (HUVEC cells) | Selectivity Index (3D7) =CC50/IC50 ([2]; CC50 HUVEC / IC50 3D7) |
| --- | --- | --- | --- | --- | --- |
| CCN(CC)CCCC(C)Nc1ccnc2cc(Cl)ccc12 (centres unmarked) [CQ, chloroquine, reference compound] | 134 ± 32.3 nM | 22.4 ± 3.24 nM | – | – | – |
| O=C(COc1ccccc1)N1CCC(N(C(=O)COc2ccccc2)c2ccccc2)CC1 [Compound 10] | – | – | >5.3 | >100 nM | >8.9 |
